In US10961248B2, “Pesticidally active heterocyclic derivatives with sulfur containing substituents” (SYNGENTA PARTICIPATIONS AG, priority 2016, dated 2021):

Tests used:
Type in all cases: in vivo
[1] = tested on: Diabrotica Balteata (Corn Root Worm); test: Example B7: activity against Diabrotica balteata, sprayed maize sprouts; settings: 96 h, application rate 200 ppm, L2 larvae, 4 days after infestation, read-out: effect in at least one of the two categories (mortality or growth inhibition)
Protocol: Maize sprouts placed onto an agar layer in 24-well microtiter plates were treated with aqueous test solutions prepared from 10'000 ppm DMSO stock solutions by spraying. After drying, the plates were infested with L2 larvae (6 to 10 per well). The samples were assessed for mortality and growth inhibition in comparison to untreated samples 4 days after infestation.

[2] = tested on: Myzus persicae (Green Peach Aphid); test: Example B2: activity against Myzus persicae, sprayed sunflower leaf discs; settings: foliar, 144 h, application rate 200 ppm, aphid population of mixed ages, 6 days after infestation
Protocol: (§1) Sunflower leaf discs were placed on agar in a 24-well microtiter plate and sprayed with aqueous test solutions prepared from 10'000 ppm DMSO stock solutions. After drying, the leaf discs were infested with an aphid population of mixed ages. The samples were assessed for mortality 6 days after infestation.

[3] = tested on: Myzus persicae (Green Peach Aphid); test: Example B3: activity against Myzus persicae, roots of pea seedlings in test solution; settings: 144 h, test rate 24 ppm, roots of infested pea seedlings in test solution, 6 days
Protocol: Roots of pea seedlings infested with an aphid population of mixed ages were placed directly in the aqueous test solutions prepared from 10'000 DMSO stock solutions. The samples were assessed for mortality 6 days after placing seedlings in test solutions.

[4] = tested on: Bemisia tabaci (Cotton White Fly); test: Example B5: activity against Bemisia tabaci, sprayed cotton leaf discs; settings: foliar, 144 h, application rate 200 ppm, adult white flies, 6 days after incubation
Protocol: Cotton leaf discs were placed on agar in 24-well microtiter plates and sprayed with aqueous test solutions prepared from 10'000 ppm DMSO stock solutions. After drying the leaf discs were infested with adult white flies. The samples were checked for mortality 6 days after incubation.

[5] = tested on: Frankliniella occidentalis (Western Flower Thrips); test: Example B4: activity against Frankliniella occidentalis, sprayed sunflower leaf discs; settings: foliar, 168 h, application rate 200 ppm, population of mixed ages, 7 days after infestation
Protocol: as §1, with “in” for “in a”, “plates” for “plate”, “10'000” for “10'000 ppm”, “drying” for “drying,”, “a Frankliniella” for “an aphid”, “7” for “6”

[6] = tested on: Euschistus heros (Neotropical Brown Stink Bug); test: Example B6: activity against Euschistus heros, sprayed soybean leaf; settings: 120 h, application rate 200 ppm, N-2 nymphs, 5 days after infestation, read-out: effect in at least one of the two categories (mortality or growth inhibition)
Protocol: Soybean leaf on agar in 24-well microtiter plates were sprayed with aqueous test solutions prepared from 10'000 ppm DMSO stock solutions. After drying the leaf were infested with N-2 nymphs. The samples were assessed for mortality and growth inhibition in comparison to untreated samples 5 days after infestation.

[7] = tested on: Plutella xylostella (Diamond Back Moth); test: Example B1: activity against Plutella xylostella, artificial diet in 24-well plates; settings: 120 h, application rate 200 ppm, L2 larvae on artificial diet, 5 days after infestation, read-out: effect in at least one of the two categories (mortality or growth inhibition)
Protocol: 24-well microtiter plates with artificial diet were treated with aqueous test solutions prepared from 10'000 ppm DMSO stock solutions by pipetting. After drying, the plates were infested with L2 larvae (10 to 15 per well). The samples were assessed for mortality and growth inhibition in comparison to untreated samples 5 days after infestation.

[8] = tested on: Spodoptera littoralis (Egyptian Cotton Leaf Worm); test: Example B7: activity against Spodoptera littoralis, sprayed cotton leaf discs; settings: foliar, 72 h, application rate 200 ppm, L1 larvae, 3 days after infestation
Protocol: Cotton leaf discs were placed onto agar in 24-well microtiter plates and sprayed with aqueous test solutions prepared from 10'000 ppm DMSO stock solutions. After drying the leaf discs were infested with five L1 larvae. The samples were assessed for mortality, anti-feeding effect, and growth inhibition in comparison to untreated samples 3 days after infestation. Control of Spodoptera littoralis by a test sample is given when at least one of the categories mortality, anti-feedant effect, and growth inhibition is higher than the untreated sample.

CCS(=O)(=O)c1cc(N=S(C)(=O)CC)cnc1-c1nc2cc(C(F)(F)F)ncc2n1C (stereo not drawn) [P19, ethyl-[[5-ethylsulfonyl-6-[3-methyl-6-(trifluoromethyl)imidazo[4,5-c]pyridin-2-yl]-3-pyridyl]imino]-methyl-oxo-λ^6-sulfane]
≥ 80%: percent effect (mortality or growth inhibition) at 200 ppm [1] | mortality at 200 ppm [2] | mortality at 24 ppm [3] | mortality at 200 ppm [4] | mortality at 200 ppm [5] | percent effect (mortality or growth inhibition) at 200 ppm [6] | percent effect (mortality or growth inhibition) at 200 ppm [7]

CCS(=O)(=O)c1cc(N=S2(=O)CCOCC2)cnc1-c1nc2cc(C(F)(F)F)ncc2n1C [P5, 4-[[5-ethylsulfonyl-6-[3-methyl-6-(trifluoromethyl)imidazo[4,5-c]pyridin-2-yl]-3-pyridyl]imino]-1,4-oxathiane 4-oxide]
≥ 80%: mortality at 200 ppm [2] | percent control (mortality, anti-feedant effect or growth inhibition) at 200 ppm [8] | mortality at 24 ppm [3] | mortality at 200 ppm [4] | mortality at 200 ppm [5] | percent effect (mortality or growth inhibition) at 200 ppm [6] | percent effect (mortality or growth inhibition) at 200 ppm [7]

CCS(=O)(=O)c1cc(N=S2(=O)CCOCC2)ccc1-c1nc2cc(C(F)(F)F)ncc2n1C [P21, 4-[3-ethylsulfonyl-4-[3-methyl-6-(trifluoromethyl)imidazo[4,5-c]pyridin-2-yl]phenyl]imino-1,4-oxathiane 4-oxide]
≥ 80%: mortality at 24 ppm [3] | mortality at 200 ppm [4] | percent effect (mortality or growth inhibition) at 200 ppm [6]

CCSc1cc(N=S(C)(C)=O)cnc1-c1nc2cc(C(F)(F)F)ncc2n1C [P20, [5-ethylsulfanyl-6-[3-methyl-6-(trifluoromethyl)imidazo[4,5-c]pyridin-2-yl]-3-pyridyl]imino-dimethyl-oxo-λ^6-sulfane]
≥ 80%: percent effect (mortality or growth inhibition) at 200 ppm [1] | mortality at 200 ppm [2] | mortality at 24 ppm [3] | mortality at 200 ppm [5] | percent effect (mortality or growth inhibition) at 200 ppm [6]

CCS(=O)(=O)c1cc(N=S(C)C)cnc1-c1nc2cc(C(F)(F)F)ncc2n1C [P17, [5-ethylsulfonyl-6-[3-methyl-6-(trifluoromethyl)imidazo[4,5-c]pyridin-2-yl]-3-pyridyl]imino-dimethyl-λ^4-sulfane]
≥ 80%: percent effect (mortality or growth inhibition) at 200 ppm [1] | mortality at 200 ppm [2] | percent effect (mortality or growth inhibition) at 200 ppm [6]

CCS(=O)(=O)c1cc(N=S(C)(=O)C2CC2)cnc1-c1cn2cnc(C(F)(F)F)cc2n1 (stereo not drawn) [P8, cyclopropyl-[[5-ethylsulfonyl-6-[7-(trifluoromethyl)imidazo[1,2-c]pyrimidin-2-yl]-3-pyridyl]imino]-methyl-oxo-λ^6-sulfane]
≥ 80%: percent effect (mortality or growth inhibition) at 200 ppm [1] | mortality at 200 ppm [2] | percent control (mortality, anti-feedant effect or growth inhibition) at 200 ppm [8] | mortality at 24 ppm [3] | mortality at 200 ppm [4] | mortality at 200 ppm [5] | percent effect (mortality or growth inhibition) at 200 ppm [6] | percent effect (mortality or growth inhibition) at 200 ppm [7]

CCS(=O)(=O)c1cc(N=S(C)(=O)C2CC2)cnc1-n1cc2cnc(C(F)(F)F)cc2n1 (stereo not drawn) [P12, cyclopropyl-[[5-ethylsulfonyl-6-[6-(trifluoromethyl)pyrazolo[4,3-c]pyridin-2-yl]-3-pyridyl]imino]-methyl-oxo-λ^6-sulfane]
≥ 80%: percent effect (mortality or growth inhibition) at 200 ppm [1] | mortality at 200 ppm [2] | percent control (mortality, anti-feedant effect or growth inhibition) at 200 ppm [8] | mortality at 200 ppm [4] | mortality at 200 ppm [5] | percent effect (mortality or growth inhibition) at 200 ppm [6] | percent effect (mortality or growth inhibition) at 200 ppm [7]

CCS(=O)(=O)c1cc(N=S2(=O)CCC2)cnc1-c1cn2cnc(C(F)(F)F)cc2n1 [P13, 1-[[5-ethylsulfonyl-6-[7-(trifluoromethyl)imidazo[1,2-c]pyrimidin-2-yl]-3-pyridyl]imino]thietane 1-oxide]
≥ 80%: mortality at 200 ppm [2] | percent control (mortality, anti-feedant effect or growth inhibition) at 200 ppm [8] | mortality at 24 ppm [3] | mortality at 200 ppm [4] | mortality at 200 ppm [5] | percent effect (mortality or growth inhibition) at 200 ppm [6] | percent effect (mortality or growth inhibition) at 200 ppm [7]

CCS(CC)=Nc1cnc(-c2nc3cc(C(F)(F)F)ncc3n2C)c(S(=O)(=O)CC)c1 [P18]
≥ 80%: percent effect (mortality or growth inhibition) at 200 ppm [1] | mortality at 200 ppm [2] | percent effect (mortality or growth inhibition) at 200 ppm [6]

CCS(=O)(=O)c1cc(N=S(C)(C)=O)cnc1-n1cc2cnc(C(F)(F)F)cc2n1 [P16, [5-ethylsulfonyl-6-[6-(trifluoromethyl)pyrazolo[4,3-c]pyridin-2-yl]-3-pyridyl]imino-dimethyl-oxo-λ^6-sulfane]
≥ 80%: percent effect (mortality or growth inhibition) at 200 ppm [1] | mortality at 200 ppm [2] | percent control (mortality, anti-feedant effect or growth inhibition) at 200 ppm [8] | mortality at 24 ppm [3] | mortality at 200 ppm [4] | mortality at 200 ppm [5] | percent effect (mortality or growth inhibition) at 200 ppm [6] | percent effect (mortality or growth inhibition) at 200 ppm [7]

CCS(=O)(=O)c1cc(N=S2(=O)CCCC2)cnc1-c1nc2cc(C(F)(F)F)ncc2n1C [P6, 1-[[5-ethylsulfonyl-6-[3-methyl-6-(trifluoromethyl)imidazo[4,5-c]pyridin-2-yl]-3-pyridyl]imino]thiolane 1-oxide]
≥ 80%: mortality at 200 ppm [2] | mortality at 24 ppm [3] | mortality at 200 ppm [4] | mortality at 200 ppm [5] | percent effect (mortality or growth inhibition) at 200 ppm [6] | percent effect (mortality or growth inhibition) at 200 ppm [7]

CCS(=O)(=O)c1cc(N=S(C)(C)=O)ccc1-c1cn2cnc(C(F)(F)F)cc2n1 [P14, [3-ethylsulfonyl-4-[7-(trifluoromethyl)imidazo[1,2-c]pyrimidin-2-yl]phenyl]imino-dimethyl-oxo-λ^6-sulfane]
≥ 80%: mortality at 200 ppm [2] | mortality at 24 ppm [3] | mortality at 200 ppm [4] | percent effect (mortality or growth inhibition) at 200 ppm [6] | percent effect (mortality or growth inhibition) at 200 ppm [7]

CCS(=O)(=O)c1cc(N=S2(=O)CCOCC2)cnc1-c1cn2cnc(C(F)(F)F)cc2n1 [P22, 4-[[5-ethylsulfonyl-6-[7-(trifluoromethyl)imidazo[1,2-c]pyrimidin-2-yl]-3-pyridyl]imino]-1,4-oxathiane 4-oxide]
≥ 80%: mortality at 200 ppm [2] | percent control (mortality, anti-feedant effect or growth inhibition) at 200 ppm [8] | mortality at 24 ppm [3] | mortality at 200 ppm [4] | mortality at 200 ppm [5] | percent effect (mortality or growth inhibition) at 200 ppm [6] | percent effect (mortality or growth inhibition) at 200 ppm [7]

CCS(=O)(=O)c1cc(N=S(C)(C)=O)cnc1-c1cn2cnc(C(F)(F)F)cc2n1 [P1, [5-ethylsulfonyl-6-[7-(trifluoromethyl)imidazo[1,2-c]pyrimidin-2-yl]-3-pyridyl]imino-dimethyl-oxo-λ^6-sulfane]
≥ 80%: mortality at 200 ppm [2] | percent control (mortality, anti-feedant effect or growth inhibition) at 200 ppm [8] | mortality at 24 ppm [3] | mortality at 200 ppm [4] | mortality at 200 ppm [5] | percent effect (mortality or growth inhibition) at 200 ppm [6] | percent effect (mortality or growth inhibition) at 200 ppm [7]

CCS(=O)(=O)c1cc(N=S(C)(=O)C2CC2)ccc1-c1cn2cnc(C(F)(F)F)cc2n1 (stereo not drawn) [P15, cyclopropyl-[3-ethylsulfonyl-4-[7-(trifluoromethyl)imidazo[1,2-c]pyrimidin-2-yl]phenyl]imino-methyl-oxo-λ^6-sulfane]
≥ 80%: percent effect (mortality or growth inhibition) at 200 ppm [1] | mortality at 200 ppm [2] | percent effect (mortality or growth inhibition) at 200 ppm [6] | percent effect (mortality or growth inhibition) at 200 ppm [7]
